Laboratory results from patent US20190351012A1, “TARGETING OF INTERFERON-STIMULATED GENE EXPRESSION TO TREAT INTERFERONOPATHIES” (New York University, priority 2018, published 2019).

Test system: p21^Cip1/wAF1 expression in HeLa cells
Assay: p21 Cip1/WAF1 expression in HeLa cells, real-time RT-PCR (control for HDAC inhibition)
Assay type: cell-based, human
Settings: IFN-α 6 h, FIG. 1B
Experimental: FIG. 1. Class I HDAC mediates ISG expression. (A, B) HeLa cells were treated with IFN-α for 6 h in the absence or presence of increasing concentrations of Romidepsin or TSA, as indicated. RNA was quantified by real-time RT-PCR for ISG54 and p21^wAF1/Cip1 expression, normalized to GAPDH, and represented as fold induction over untreated cells. (C) HeLa cells were treated with IFN-α for 6 h in the absence or presence of increasing concentrations of romidepsin, RGFP966, or RGFP233, as indicated. RNA was quantified by real-time RT-PCR for IRF9 expression, normalized to GAPDH and represented as fold induction over untreated cells. HEK293 cells were transfected with siRNA against HDAC1, HDAC2, or E2F4 separately (D) or with a combination of HDAC1 and HDAC2 targeting oligonucleotides (E) and cells were stimulated with IFN-α for 6 h (α) in the presence (αT) or absence of TSA, as indicated. Whole cell extracts were analyzed for expression of the indicated proteins by western blotting (left panels). ISG54 expression was quantified by real-time RT-PCR, and represented as fold induction over untreated cells (right panels). (F) HEK293T cells were transfected with pcDNA3 (Ctl), HDAC1, or HDAC2 expression constructs, and ISG54 expression was quantified after stimulation with IFN-α for 10 h. […] Nuclear extracts were analyzed for expression of Sin3B by western blotting (middle panels). […]

## CC(/C=C/C(=O)NO)=C\[C@@H](C)C(=O)c1ccc(N(C)C)cc1 [TSA, Trichostatin A]
  p21 Cip1/WAF1 expression: led to p21^Cip1/wAF1 expression
